Blank lines part the entries; values can stand above or below the substance they belong to.
Molecular target: T1, MyD88^TIR (Homo sapiens, UniProt Q99836)
T1 construct: MyD88 (residues 148–296); 6xHis; made in house; host or cells: E. coli BL21 (DE3)
Assay: T‐Surf phage library (P8 and P3) selection against MyD88^TIR, four rounds, NGS read counts
Format: binding
Conditions: for P3_MyD88 Rank (after) / P3_MyD88 Rank (before): P3 library; for P8_MyD88 Rank (after) / P8_MyD88 Rank (before): P8 library; for Population: 4th round of selection against MyD88 TIR, share of NGS reads
Procedure: T‐Surf libraries were screened against the immobilized TIR domains of two major human TLR adaptor proteins, MAL^TIR and MyD88^TIR, allowing cross‐species selection of TIR‐binding motifs with 190 946 TIR‐derived peptides in a single binding assay (Scheme 1). Enriched phage pools from the fourth round of selection were analyzed using NGS after barcoding the peptide‐coding regions of the phage pools.
Phage display screening was performed by coating two wells of a 96‐well plate (Maxisorp, Thermo Fisher Scientific) with 100 µL of 5 µg mL^−1 TIR domains overnight; then, the coated wells were blocked with 200 µL of blocking buffer (0.2% BSA in PBS) and set aside for 1 h at 4 °C with gentle shaking. Next, 100 µL of the phage library was added to the wells and incubated for 1 h at room temperature (RT; 20 – 22 °C) with gentle shaking. The plate was washed four times with PBS containing 0.5% Tween‐20; the bound phages were eluted by adding 100 µL of 100 mM HCl to each well. The elute was neutralized with 10 µL of 1.0 M Tris‐HCl (pH 11.0). E. coli TG1 cells were grown to the log phase (A600 = ≈0.6), and 1 mL of the culture was incubated with 100 µL of the eluted phages for 30 min at 37 °C, with shaking at 200 rpm. Next, 1 µL of M13KO7 helper phages was added, followed by incubation for 45 min at 37 °C, with shaking. Subsequently, the cells were transferred to 25 mL of 2× yeast extract tryptone/carbenicillin/kanamycin medium and incubated overnight at 37 °C with shaking at 200 rpm. The amplified phages were precipitated with 20% PEG‐8000/2.5 M NaCl to be used for the next round of selection.
The naïve T‐Surf libraries in P8 and P3 and the enriched phage pools after four rounds were barcoded for NGS as previously described.^[ [59] ^] Briefly, 5 µL of the phage pool was used as a template for 20 cycles of a 50 µL PCR reaction using […] each of forward and reverse barcoded primers and PrimeSTAR Max DNA Polymerase. The PCR products were purified using Expin Gel SV (GeneAll). The NGS samples were quantified using qPCR, following the qPCR Quantification Protocol Guide (KAPA Library Quantification kits for Illumina Sequencing Platform), and qualified using the TapeStation High Sensitivity D1000 ScreenTape (Agilent Technologies). The indexed libraries were further sequenced by Macrogen (Seoul, Republic of Korea) using the NovaSeq platform (Illumina) with 100 bp paired‐end reads. The reads were demultiplexed by barcodes and filtered for an average Phred quality score of at least 30, followed by trimming the flanking consensus sequences using Cutadapt (version 2.3). Peptide sequence populations were analyzed according to the read counts.

[1] = P8_MyD88: rank by NGS read count after grouping
[2] = P8_MyD88: rank by NGS read count before grouping
[3] = selection against MyD88, rank by count after grouping
[4] = selection against MyD88, rank by count before grouping
[5] = P3_MyD88: rank by count after grouping
[6] = P3_MyD88: rank by count before grouping
[7] = selection against MyD88 TIR, rank by count after grouping
[8] = selection against MyD88 TIR, rank by count before grouping
[9] = P8_MyD88: rank by count after grouping
[10] = P8_MyD88: rank by count before grouping
[11] = selection against MyD88, rank after grouping
[12] = selection against MyD88, rank before grouping
[13] = 4R selection against MyD88, rank after grouping
[14] = 4R selection against MyD88, rank before grouping
[15] = P3_MyD88 pool: P3 T-Surf phage library

T1 sequence (Q99836 148-296): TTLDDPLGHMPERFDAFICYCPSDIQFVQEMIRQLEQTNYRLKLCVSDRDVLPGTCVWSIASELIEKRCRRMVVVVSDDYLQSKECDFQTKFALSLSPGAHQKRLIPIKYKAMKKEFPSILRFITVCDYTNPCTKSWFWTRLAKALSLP

Substance: DPHDLEWVYERLVSLF
Rank (after) [1]: 913
Rank (before) [2]: 2603

Substance: NQGRNALTAAADLSGW
P3_MyD88 Rank (after) [3]: 697
P3_MyD88 Rank (before) [4]: 3541

Substance: LAANEIRKEMKTLATI
P3_MyD88 Rank (after) [3]: 680
P3_MyD88 Rank (before) [4]: 2326

Substance: SSFREGLWHLLVLSKK
Rank (after) [5]: 160
Rank (before) [6]: 3197

Substance: PYLLWVFDDEDGQELF
P8_MyD88 Rank (after) [7]: 199
P8_MyD88 Rank (before) [8]: 291

Substance: LKWGGSCLSIKLAYAM
Rank (after) [5]: 445
Rank (before) [6]: 2411

Substance: DHHLDLPRGKALTPEILG
P3_MyD88 Rank (after) [13]: 657
P3_MyD88 Rank (before) [14]: 2012

Substance: DPQDLVWYYERLVSLF
Rank (after) [9]: 410
Rank (before) [10]: 2717

Substance: LGYQWNDWEYFVGIED
Rank (after) [1]: 957
Rank (before) [2]: 3326

Substance: SSFREGL*RLLELSKK
Population [15]: 0.00466%

Substance: SSLLEGRWALLELSKK
Rank (after) [5]: 459
Rank (before) [6]: 3253

Substance: FDASSSWALDELLRILY
Rank (after) [9]: 404
Rank (before) [10]: 813

Substance: KEVEGWRCADQSGEP
P3_MyD88 Rank (after) [13]: 666
P3_MyD88 Rank (before) [14]: 3653

Substance: DPQVLVWLYERPFRQI
P8_MyD88 Rank (after) [13]: 629
P8_MyD88 Rank (before) [14]: 2644

Substance: YELDFSHFWLFDGQAGGEA
P8_MyD88 Rank (after) [7]: 284
P8_MyD88 Rank (before) [8]: 664

Substance: DHHLDLPRGKAIKPVILG
Population [15]: 0.00291%

Substance: THSHNAVPAAANLSGW
Rank (after) [5]: 404
Rank (before) [6]: 3289

Substance: DPQELECLYERLFSQM
P8_MyD88 Rank (after) [13]: 667
P8_MyD88 Rank (before) [14]: 2991

Substance: YAFTGHLHRYLVPRGL
P3_MyD88 Rank (after) [7]: 248
P3_MyD88 Rank (before) [8]: 1503

Substance: LGYHWIVWEYFVGIDD
Rank (after) [9]: 421
Rank (before) [10]: 3244

Substance: YARSDDNYYYWVTHVLLRHL
P8_MyD88 Rank (after) [11]: 507
P8_MyD88 Rank (before) [12]: 1764

Substance: LVANEISKKIKIFAII
P3_MyD88 Rank (after) [11]: 533
P3_MyD88 Rank (before) [12]: 2319

Substance: QLIQQWIELHLHQLH
P8_MyD88 Rank (after) [13]: 588
P8_MyD88 Rank (before) [14]: 3585

Substance: DPQVRVWFYERLVSLF
P8_MyD88 Rank (after) [3]: 755
P8_MyD88 Rank (before) [4]: 2659

Substance: IDDDHLTYLVRLLLSLL
P8_MyD88 Rank (after) [11]: 539
P8_MyD88 Rank (before) [12]: 3634

The remaining lines, values ahead:

Rank (after) [9]: 385
Rank (before) [10]: 988
Substance: YILYEDQTIKFVFRDFIQEL

Rank (after) [5]: 476
Rank (before) [6]: 2449
Substance: LKWGEPYFCSKLRYAM

Rank (after) [9]: 116
Rank (before) [10]: 124
Population (P8_MyD88 pool: P8 T-Surf phage library): 0.0173%
Substance: VSSFISYLIAAFNRQG

P8_MyD88 Rank (after) [11]: 498
P8_MyD88 Rank (before) [12]: 1587
Substance: WDFASTMEQLWARLYY

Rank (after) [1]: 1002
Rank (before) [2]: 3572
Substance: QLIGCGNTFFRWKKKIR

P3_MyD88 Rank (after) [11]: 496
P3_MyD88 Rank (before) [12]: 2998
Substance: SENYATSTWAPDELVR

P8_MyD88 Rank (after) [3]: 677
P8_MyD88 Rank (before) [4]: 2648
Substance: DPQVLEWLYKRLFSQM

P3_MyD88 Rank (after) [7]: 239
P3_MyD88 Rank (before) [8]: 2184
Substance: EWSREQLRPALKESLP

Rank (after) [1]: 981
Rank (before) [2]: 1460
Substance: WALDELLQILHPRELV

P8_MyD88 Rank (after) [3]: 740
P8_MyD88 Rank (before) [4]: 3819
Substance: STTYLQWGDNWFWDKL

P3_MyD88 Rank (after) [13]: 624
P3_MyD88 Rank (before) [14]: 3279
Substance: SRLCVMCWKNCVLPN

P3_MyD88 Rank (after) [11]: 488
P3_MyD88 Rank (before) [12]: 2753
Substance: PSEVRKQTGSLAKALCD

Rank (after) [9]: 474
Rank (before) [10]: 2164
Substance: VANILGYHWIAREHFV

P8_MyD88 Rank (after) [11]: 574
P8_MyD88 Rank (before) [12]: 2062
Substance: YLRADDSWFEEKLLFA

Rank (after) [5]: 139
Rank (before) [6]: 3237
Substance: SSFREGLLRLLELNKK

P3_MyD88 Rank (after) [3]: 710
P3_MyD88 Rank (before) [4]: 1743
Substance: YNFISQLYDALQRNRI

— article PMC11714206, “Massively Parallel Screening of Toll/Interleukin‐1 Receptor (TIR)‐Derived Peptides Reveals Multiple Toll‐Like Receptors (TLRs)‐Targeting Immunomodulatory Peptides” (Advanced Science, 2024)
